Counter-ions that a name gives are not always drawn.
Experiments:
PARP-1 FL = PARP-1 FL (Homo sapiens, UniProt P09874); assay: Fluorescence polarization probe displacement assay; type: binding; settings: for DC50: half maximal displacement concentration
Procedure: (§1) Affinity of the tested compounds and their selectivity with respect to the different PARP isoforms of interest was quantified in a displacement assay.
(§2) In all of the experiments, the polarization signal was measured using a Saphire2 plate reader (Tecan). Data analysis was performed using Dynafit software. In particular, titration data were fitted to the following equilibria: Enzyme+probe <==> Complex Enzyme-probe, while displacement data were fitted to the following equilibria: Enzyme+probe <==> Complex Enzyme-probe, Enzyme+Compound <==> Complex Enzyme-Compound, whereby binding of probe and compound on the enzyme are mutually exclusive (pure competitive mechanism). Displacement data were also fitted using Excel spreadsheet (Microsoft Inc. Seattle, USA) to a four parameter logistic model (4PL), or Hill-Slope model to calculate DC50s where the DC50 value represents the compound concentration at which the polarization signal is diminished by 50% compared to untreated controls.
(§3) In agreement, affinity binding constants (KD) were determined by fitting with a pure competitive mechanism. KD values are the average of three independent experiments.

PARP-2 FL = PARP-2 FL (Homo sapiens, UniProt Q9UGN5); assay: Fluorescence polarization probe displacement assay; type: binding; settings: for DC50: compound P1 as the probe
Procedure: as §1, §2, §3

[1] = system: hydrogen peroxide induced PAR formation in HeLa cells; assay: Cellular PAR assay (inhibition of hydrogen peroxide induced PAR formation); type: cell-based; settings: Homo sapiens, 0.1 mM hydrogen peroxide 15 min
Procedure: Compounds potencies were evaluated by measuring the inhibition of poly (ADP-ribose) (PAR) chains formation as a marker for PARP-1 inhibition.
Cellular activity of PARP-1 inhibitors was assessed by measuring the inhibition of the hydrogen peroxide induced PAR formation in HeLa cells (ECACC). Cellular PAR levels were measured by immunocytochemistry and quantified using an ArrayScan vTi instrument (Cellomics Thermo Scientific).
Studies were performed as follows: 6000 cells/well were seeded in 96 well plates (Perkin Elmer) in MEM/10% FCS and incubated for 24 hours at 37° C., 5% carbon dioxide. Test compounds were then added at the required concentration for 30′. […] Concentration curves were prepared in MEM/10% FCS from compound stocks in DMSO and final DMSO concentration was 0.002% (v/v). Duplicate wells for each concentration point were prepared with a typical highest compound concentration of 20 μM and serial dilution 1:3. […] Non-specific binding sites were blocked by incubating wells for 30 min in PBS containing 5% (w/v) FBS 0.05% tween20. […] After washing further 3 times in PBS, cellular PAR immunoreactivity was assessed using the ArrayScan vTi instrument, with a Zeiss 10×0.5 N.A. objective, and applying the Cytotoxicity.V3 algorithm (Cellomics/Thermo Fisher) with a XF100 filter. At least 10 fields, corresponding to at least 900 cells, were read for each well.
The following formula is used: IC50=Bottom+(Top−Bottom)/(1+10^((Log EC50−X))); X is the logarithm of concentration. IC50 is the response; IC50 starts at Bottom and goes to Top with a sigmoid shape.

PARP-3 FL = target: T1, PARP-3 FL (Homo sapiens, UniProt Q9Y6F1); assay: Fluorescence polarization probe displacement assay; type: binding; settings: compound P1 as the probe
T1 sequence (Q9Y6F1 1-533): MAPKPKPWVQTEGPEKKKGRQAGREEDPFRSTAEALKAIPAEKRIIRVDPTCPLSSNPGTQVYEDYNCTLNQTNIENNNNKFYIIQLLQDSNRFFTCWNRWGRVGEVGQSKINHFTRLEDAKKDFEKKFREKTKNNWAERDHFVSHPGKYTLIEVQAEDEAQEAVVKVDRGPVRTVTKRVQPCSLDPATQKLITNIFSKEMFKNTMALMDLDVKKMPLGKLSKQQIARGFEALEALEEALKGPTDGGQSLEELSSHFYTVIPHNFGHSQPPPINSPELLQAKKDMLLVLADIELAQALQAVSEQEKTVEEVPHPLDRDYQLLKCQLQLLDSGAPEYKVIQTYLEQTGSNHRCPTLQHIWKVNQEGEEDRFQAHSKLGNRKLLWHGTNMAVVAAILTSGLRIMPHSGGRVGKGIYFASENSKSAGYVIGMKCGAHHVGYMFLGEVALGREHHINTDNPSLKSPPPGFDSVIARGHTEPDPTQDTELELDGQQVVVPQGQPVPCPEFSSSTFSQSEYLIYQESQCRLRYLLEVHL
Procedure: as §1, §2, §3

[2] = Pharmacokinetics and oral bioavailability in the mouse; type: in vivo
Procedure: The compounds were formulated in 10% tween 80/dextrose for intravenous bolus administration while oral administrations were performed using the compounds formulated in 0.5% methylcellulose. A single administration at the dose of 10 mg/kg was given and three male animals for each route were used. […] Plasma samples were prepared by plasma proteins precipitation adding 200 µl of methanol to 10 µl of plasma in a 96 well plate. […] The supernatant was considered as final extract and injected onto the LC-MS-MS system (HPLC system: Hewlett Packard 1100 series using Atlantis HILIC Silica 50*2.1 mm 5.0 μM analytical column; MS instrument: Perkin Elmer SCIEX API 2000 and ionization performed with Turbo Ion Spray in positive ion mode). Lower limit of quantification is 5.0 ng/ml, upper limit of quantification is 10000 ng/ml. […] Non-compartmental method (linear trapezoidal rule and linear regression analysis of natural log-transformed plasma concentrations vs. time data) was used. After intravenous dosing, C0 was set equal to C0.083, Absolute bioavailability (F) was calculated from the ratio of average oral to IV (intravenous) dose-normalized plasma AUC (area under curve) values.

PARP-2 FL, sequence (Q9UGN5 whole entry): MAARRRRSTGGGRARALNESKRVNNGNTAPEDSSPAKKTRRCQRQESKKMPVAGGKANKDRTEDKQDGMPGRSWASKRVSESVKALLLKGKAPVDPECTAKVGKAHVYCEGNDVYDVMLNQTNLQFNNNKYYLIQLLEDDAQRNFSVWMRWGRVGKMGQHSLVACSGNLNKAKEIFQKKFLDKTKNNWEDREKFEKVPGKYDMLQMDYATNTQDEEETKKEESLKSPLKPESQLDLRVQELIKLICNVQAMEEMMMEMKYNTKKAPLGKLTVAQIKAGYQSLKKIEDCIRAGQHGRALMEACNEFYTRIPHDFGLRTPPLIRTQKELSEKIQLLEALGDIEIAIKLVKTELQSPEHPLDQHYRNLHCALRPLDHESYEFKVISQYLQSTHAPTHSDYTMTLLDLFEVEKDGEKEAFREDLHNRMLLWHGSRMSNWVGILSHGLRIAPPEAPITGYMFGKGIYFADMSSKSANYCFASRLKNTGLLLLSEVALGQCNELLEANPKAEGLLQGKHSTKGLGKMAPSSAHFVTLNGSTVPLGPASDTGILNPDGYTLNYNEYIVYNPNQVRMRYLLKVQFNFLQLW
PARP-1 FL, sequence (P09874 whole entry): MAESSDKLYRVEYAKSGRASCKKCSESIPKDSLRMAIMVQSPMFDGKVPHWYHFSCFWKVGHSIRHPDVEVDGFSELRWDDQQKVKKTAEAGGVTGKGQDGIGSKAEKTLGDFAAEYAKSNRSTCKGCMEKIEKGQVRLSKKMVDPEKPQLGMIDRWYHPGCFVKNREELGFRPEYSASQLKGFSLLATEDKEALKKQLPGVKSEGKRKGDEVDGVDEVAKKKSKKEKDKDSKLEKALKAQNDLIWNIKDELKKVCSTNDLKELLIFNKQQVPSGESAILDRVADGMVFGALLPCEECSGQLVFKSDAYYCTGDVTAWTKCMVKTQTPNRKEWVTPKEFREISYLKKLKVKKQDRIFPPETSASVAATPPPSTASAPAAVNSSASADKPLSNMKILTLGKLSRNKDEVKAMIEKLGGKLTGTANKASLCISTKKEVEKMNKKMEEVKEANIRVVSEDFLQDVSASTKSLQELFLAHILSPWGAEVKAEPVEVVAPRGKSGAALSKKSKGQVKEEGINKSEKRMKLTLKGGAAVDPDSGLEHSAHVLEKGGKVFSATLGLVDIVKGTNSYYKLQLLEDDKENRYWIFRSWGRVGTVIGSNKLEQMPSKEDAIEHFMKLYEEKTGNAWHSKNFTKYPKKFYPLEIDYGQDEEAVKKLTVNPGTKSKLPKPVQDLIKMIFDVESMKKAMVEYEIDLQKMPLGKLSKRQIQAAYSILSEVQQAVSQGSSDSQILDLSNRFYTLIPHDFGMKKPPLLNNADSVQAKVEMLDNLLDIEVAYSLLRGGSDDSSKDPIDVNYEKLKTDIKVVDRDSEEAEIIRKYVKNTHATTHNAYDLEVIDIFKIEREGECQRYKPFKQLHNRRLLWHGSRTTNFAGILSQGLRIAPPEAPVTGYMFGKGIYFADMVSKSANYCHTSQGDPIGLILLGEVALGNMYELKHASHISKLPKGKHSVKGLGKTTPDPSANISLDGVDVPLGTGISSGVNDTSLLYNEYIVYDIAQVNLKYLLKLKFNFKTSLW

Kd (PARP-1 FL) | DC50 (PARP-1 FL) | Kd (PARP-2 FL) | DC50 (PARP-2 FL) | IC50 [1] | DC50 (PARP-3 FL) | Displacement of the probe (compound P1 or compound P3) (PARP-1 FL; from all of the tested PARP isoforms) | F on AUC ([2]; 10 mg/kg, ratio of oral to IV dose-normalized plasma AUC) | clearance ([2]; male, Balb Nu/Nu, plasma, 10 mg/kg intravenous bolus, mean value, read-out: CL(IV bolus)) | Vd ([2]; male, Balb Nu/Nu, plasma, 10 mg/kg intravenous bolus, mean value, read-out: Vdss (IV bolus)) | AUC ([2]; male, Balb Nu/Nu, plasma, 10 mg/kg oral, mean value) | half-life ([2]; male, Balb Nu/Nu, plasma, 10 mg/kg oral, mean value, read-out: T½ (oral) (converted)) | Structure (SMILES)
0.04 µM | < 0.25 µM | 1.36 µM | 1.58 µM | 8.3 µM | – | – | – | – | – | – | – | O=c1[nH]c(-c2ccccc2)c(OCCCN2CCCC2)c2ccccc12 [Compound 21, 3-Phenyl-4-(3-pyrrolidin-1-yl-propoxy)-2H-isoquinolin-1-one]
< 0.03 µM | < 0.25 µM | 0.33 µM | 0.77 µM | 0.25 µM | 0.55 µM | – | – | – | – | – | – | O=c1[nH]c(-c2ccc(O)cc2)c(OCCCN2CCCCC2)c2ccccc12 [Compound 27, 3-(4-Hydroxy-phenyl)-4-(3-piperidin-1-yl-propoxy)-2H-isoquinolin-1-one]
< 0.01 µM | < 0.25 µM | 0.33 µM | 0.68 µM | 0.23 µM | 0.35 µM | – | – | – | – | – | – | NCCOc1c(-c2ccc(O)cc2)[nH]c(=O)c2ccccc12 [Compound 26, 4-(2-Amino-ethoxy)-3-(4-hydroxy-phenyl)-2H-isoquinolin-1-one]
< 0.03 µM | < 0.25 µM | – | 1.1 µM | 0.4 µM | 0.47 µM | – | – | – | – | – | – | NCCOc1c(-c2ccc(O)cc2)[nH]c(=O)c2cc(F)ccc12 [Compound 28, 4-(2-Amino-ethoxy)-7-fluoro-3-(4-hydroxy-phenyl)-2H-isoquinolin-1-one hydrobromide]
– | < 0.25 µM | – | 3.78 µM | 0.3 µM | – | – | – | – | – | – | – | O=c1[nH]c(-c2ccccc2)c(OCCCN2CCCCC2)c2ccc(F)cc12 [Compound 38, 7-Fluoro-3-phenyl-4-(3-piperidin-1-yl-propoxy)-2H-isoquinolin-1-one]
< 0.03 µM | < 0.25 µM | – | 3.3 µM | 0.08 µM | 0.33 µM | – | – | – | – | – | – | NCCOc1c(-c2cccc(Cl)c2)[nH]c(=O)c2cc(F)ccc12 [Compound 50, 4-(2-Amino-ethoxy)-3-(3-chloro-phenyl)-7-fluoro-2H-isoquinolin-1-one hydrochloride]
< 0.03 µM | < 0.25 µM | 1.01 µM | 3.28 µM | 0.34 µM | – | – | – | – | – | – | – | CN(C)CCOc1c(-c2ccccc2)[nH]c(=O)c2ccccc12 [Compound 17, 4-(2-Dimethylamino-ethoxy)-3-phenyl-2H-isoquinolin-1-one]
0.05 µM | < 0.25 µM | 5.35 µM | 5.52 µM | 6.5 µM | – | – | – | – | – | – | – | CN1CCN(CCCOc2c(-c3ccccc3)[nH]c(=O)c3ccccc23)CC1 [Compound 20, 4-[3-(4-Methyl-piperazin-1-yl)-propoxy]-3-phenyl-2H-isoquinolin-1-one di hydrochloride]
– | < 0.25 µM | – | – | 0.62 µM | – | – | – | – | – | – | – | O=c1[nH]c(-c2ccccc2)c(OCCCN2CCCCC2)c2ccc(Cl)cc12 [Compound 37, 7-Chloro-3-phenyl-4-(3-piperidin-1-yl-propoxy)-2H-isoquinolin-1-one]
– | 0.38 µM | – | 4.35 µM | – | 0.54 µM | – | – | – | – | – | – | O=c1[nH]c(-c2ccccc2)c(OC2CCNCC2)c2ccc(F)cc12 [Compound 85, 7-fluoro-3-phenyl-4-(piperidin-4-yloxy)isoquinolin-1(2H)-one hydrochloride]
< 0.03 µM | < 0.25 µM | – | 0.54 µM | – | 0.2 µM | – | – | – | – | – | – | NCCOc1c(-c2ccsc2)[nH]c(=O)c2ccccc12 [Compound 29, 4-(2-Amino-ethoxy)-3-thiophen-3-yl-2H-isoquinolin-1-one hydrochloride]
< 0.03 µM | < 0.25 µM | – | – | 0.17 µM | 0.48 µM | – | – | – | – | – | – | COc1ccc(-c2[nH]c(=O)c3ccccc3c2OCCCN2CCCCC2)cc1 [Compound 23, 3-(4-Methoxy-phenyl)-4-(3-piperidin-1-yl-propoxy)-2H-isoquinolin-1-one]
< 0.03 µM | < 0.25 µM | 8.65 µM | – | 0.85 µM | – | – | – | – | – | – | – | CCN(CC)CCCOc1c(-c2ccccc2)[nH]c(=O)c2ccccc12 [Compound 18, 4-(3-Diethylamino-propoxy)-3-phenyl-2H-isoquinolin-1-one hydrochloride]
< 0.03 µM | < 0.25 µM | 7.29 µM | – | – | – | – | – | – | – | – | – | CN1CCN(CCOc2c(-c3ccccc3)[nH]c(=O)c3ccccc23)CC1 [Compound 19, 4-[2-(4-Methyl-piperazin-1-yl)-ethoxy]-3-phenyl-2H-isoquinolin-1-one di hydrochloride]

The remaining lines, values behind:

Structure (SMILES) | Kd (PARP-1 FL) | DC50 (PARP-1 FL) | Kd (PARP-2 FL) | DC50 (PARP-2 FL) | IC50 [1] | DC50 (PARP-3 FL) | Displacement of the probe (compound P1 or compound P3) (PARP-1 FL; from all of the tested PARP isoforms) | F on AUC ([2]; 10 mg/kg, ratio of oral to IV dose-normalized plasma AUC) | clearance ([2]; male, Balb Nu/Nu, plasma, 10 mg/kg intravenous bolus, mean value, read-out: CL(IV bolus)) | Vd ([2]; male, Balb Nu/Nu, plasma, 10 mg/kg intravenous bolus, mean value, read-out: Vdss (IV bolus)) | AUC ([2]; male, Balb Nu/Nu, plasma, 10 mg/kg oral, mean value) | half-life ([2]; male, Balb Nu/Nu, plasma, 10 mg/kg oral, mean value, read-out: T½ (oral) (converted))
O=c1[nH]c(-c2ccccc2)c(OCCCN2CCCCC2)c2ccccc12 [Compound 5, 3-Phenyl-4-(3-piperidin-1-yl-propoxy)-2H-isoquinolin-1-one trifluoroacetate] | < 0.03 µM | < 0.25 µM | 4.59 µM | 4.34 µM | 1.44 µM | – | – | – | – | – | – | –
NCCCOc1c(-c2ccccc2)[nH]c(=O)c2ccccc12 [Compound 3, 4-(3-Amino-propoxy)-3-phenyl-2H-isoquinolin-1-one hydrochloride] | < 0.03 µM | < 0.25 µM | 3.92 µM | 4.1 µM | 3.26 µM | – | – | – | – | – | – | –
O=C(NCCCOc1c(-c2ccccc2)[nH]c(=O)c2ccccc12)c1ccccc1 [Compound 8, N-[3-(1-Oxo-3-phenyl-1,2-dihydro-isoquinolin-4-yloxy)-propyl]benzamide] | – | 0.82 µM | – | 4.29 µM | – | – | – | – | – | – | – | –
NCCCCOc1c(-c2ccccc2)[nH]c(=O)c2ccccc12 [Compound 22, 4-(4-Amino-butoxy)-3-phenyl-2H-isoquinolin-1-one hydrochloride] | < 0.03 µM | < 0.25 µM | 1.34 µM | 4.08 µM | 9.5 µM | – | – | – | – | – | – | –
O=c1[nH]c(-c2ccccc2)c(OCCCN2CCNCC2)c2ccccc12 [Compound 14, 3-Phenyl-4-(3-piperazin-1-yl-propoxy)-2H-isoquinolin-1-one di-hydrochloride] | < 0.03 µM | < 0.25 µM | 6.13 µM | 4.29 µM | 4.2 µM | – | – | – | – | – | – | –
COc1cccc(-c2[nH]c(=O)c3ccccc3c2OCCN2CCCCC2)c1 [Compound 9, 3-(3-Methoxy-phenyl)-4-(2-piperidin-1-yl-ethoxy)-2H-isoquinolin-1-one] | – | 0.37 µM | – | 0.86 µM | – | – | – | – | – | – | – | –
NC(=O)c1cccc(N)c1 [Compound 3-AB, 3-aminobenzamide, reference compound] | – | – | – | – | – | – | fully displaced | – | – | – | – | –
CNCCCOc1c(-c2ccccc2)[nH]c(=O)c2ccccc12.Cl [Compound 12, 4-(3-Methylamino-propoxy)-3-phenyl-2H-isoquinolin-1-one hydrochloride] | 0.05 µM | < 0.25 µM | 1.65 µM | 2.91 µM | 0.42 µM | – | – | 17% | 177 mL/min/kg | 3.3 L/kg | 0.52 µM·h | 1.19 h
CC(=O)N1CCN(CCOc2c(-c3ccccc3)[nH]c(=O)c3ccccc23)CC1 [Compound 7, 4-[2-(4-Acetyl-piperazin-1-yl)-ethoxy]-3-phenyl-2H-isoquinolin-1-one] | < 0.03 µM | < 0.25 µM | > 10 µM | > 10 µM | – | – | – | – | – | – | – | –
NCCOc1c(-c2ccccc2)[nH]c(=O)c2ccccc12 [Compound 1, 4-(2-Amino-ethoxy)-3-phenyl-2H-isoquinolin-1-one hydrochloride] | < 0.03 µM | < 0.25 µM | 3.07 µM | 2.89 µM | 0.79 µM | – | – | – | – | – | – | –
COc1cccc(-c2[nH]c(=O)c3ccccc3c2OCCCN2CCCCC2)c1 [Compound 10, 3-(3-Methoxy-phenyl)-4-(3-piperidin-1-yl-propoxy)-2H-isoquinolin-1-one] | 0.05 µM | 0.35 µM | 4.39 µM | – | 0.33 µM | – | – | – | – | – | – | –
CC(=O)NCCOc1c(-c2ccccc2)[nH]c(=O)c2ccccc12 [Compound 2, N-[2-(1-Oxo-3-phenyl-1,2-dihydro-isoquinolin-4-yloxy)-ethyl]-acetamide] | 0.2 µM | 0.32 µM | 6.28 µM | – | 6.72 µM | – | – | – | – | – | – | –
O=c1[nH]c(-c2ccccc2)c(OCCN2CCNCC2)c2ccccc12 [Compound 6, 3-Phenyl-4-(2-piperazin-1-yl-ethoxy)-2H-isoquinolin-1-one di-hydrochloride] | < 0.03 µM | < 0.25 µM | > 10 µM | > 10 µM | 0.86 µM | – | – | – | – | – | – | –
CNCCOc1c(-c2ccccc2)[nH]c(=O)c2ccccc12 [Compound 16, 4-(2-Methylamino-ethoxy)-3-phenyl-2H-isoquinolin-1-one] | < 0.03 µM | < 0.25 µM | 2.44 µM | – | 0.48 µM | – | – | – | – | – | – | –
CC(=O)NCCCOc1c(-c2ccccc2)[nH]c(=O)c2ccccc12 [Compound 4, N-[3-(1-Oxo-3-phenyl-1,2-dihydro-isoquinolin-4-yloxy)-propyl]-acetamide] | 0.19 µM | 0.31 µM | 0.95 µM | 0.91 µM | – | – | – | – | – | – | – | –

Source: US8993594B2, “Isoquinolin-1(2H)-one derivatives as PARP-1 inhibitors” (Nerviano Medical Sciences S.R.L., priority 2009, dated 2015)
